Results published in US8541365B2, “Dendrimeric compounds comprising amino acids, hyperbranched core compound, process for preparation of dendrimeric compounds comprising amino acids and hyperbranched core compound, and use thereof” (Instytut Chemii Organicznej, Polska Akademia Nauk, priority 2008, dated 2013).
Read-outs that look alike come from different tables or passages of the source.

What was measured:
[1] = system: human melanoma cells (MEW 155); conditions: MEW 155 cells, 3 days culture
Method: Human melanoma cells (MEW 155) received from Institute of Oncology were inoculated on Petri dishes (Ø3 cm, Nunc) to the number of about 75 000, suspended in 3 ml of Eagle medium+10% FBS+antibiotics. Immediately after the inoculation, solutions of tested substances were added to the cells (a substance +20 ml PBS) at 0.5 ml per dish. After culturing for 3 days, numbers of cells (all, dead and alive) at each dish were determined with NucleoCounter apparatus (Chemometec).

S. aureus ATTC 43300 = type: cell-based, Staphylococus aureus subsp. aureus
Method: (§1) Titration plates with a, b, d strains were incubated for 18 h at 35° C. under aerobic conditions, and the c strain was incubated for 18 h at 33° C. under aerobic conditions.
c) Staphylococus aureus subsp. aureus ATCC 43300,

P. aeruginosa ATTC 27853 = type: cell-based, Pseudomonas aeruginosa
Method: as §1
a) Pseudomonas aeruginosa ATCC 27853,

E. coli ATTC 25922 = type: cell-based, Escherichia coli
Method: as §1
d) Escherichia coli ATCC 25922

S. aureus ATCC 25923 = type: cell-based, Staphylococus aureus subsp. aureus
Method: as §1
b) Staphylococus aureus subsp. aureus ATCC 25923,

[2] = S. aureus ATTC 43300, microdilution in CAMHB, 18 h at 33° C.
[3] = P. aeruginosa ATTC 27853, microdilution in CAMHB, 18 h at 35° C.
[4] = E. coli ATTC 25922, microdilution in CAMHB, 18 h at 35° C.
[5] = S. aureus ATCC 25923, microdilution in CAMHB, 18 h at 35° C.

SMILES	Minimal inhibitory concentration (MIC) (S. aureus ATTC 43300; [2]) [μM/L]	Minimal inhibitory concentration (MIC) (P. aeruginosa ATTC 27853; [3]) [μM/L]	Minimal inhibitory concentration (MIC) (E. coli ATTC 25922; [4]) [μM/L]	Minimal inhibitory concentration (MIC) (S. aureus ATCC 25923; [5]) [μM/L]	further results
NCCCC[C@H](NC(=O)OCc1ccccc1Cl)C(=O)NCCNC(=O)CCN(CCCC(C(=O)Nc1cccnc1)N(CCC(=O)NCCNC(=O)[C@H](CCCCN)NC(=O)OCc1ccccc1Cl)CCC(=O)NCCNC(=O)[C@H](CCCCN)NC(=O)OCc1ccccc1Cl)CCC(=O)NCCNC(=O)[C@H](CCCCN)NC(=O)OCc1ccccc1Cl (stereo partly shown) [Compound 93]	–	–	–	–	Live cells (%) ([1]; concentration 13.65 μMol dm^−3): 95.8%
N[C@@H](CCCCNC(=O)OCc1ccccc1Cl)C(=O)NCCNC(=O)CCN(CCC[C@@H](C(=O)NCCc1c[nH]c2ccccc12)N(CCC(=O)NCCNC(=O)[C@@H](N)CCCCNC(=O)OCc1ccccc1Cl)CCC(=O)NCCNC(=O)[C@@H](N)CCCCNC(=O)OCc1ccccc1Cl)CCC(=O)NCCNC(=O)[C@@H](N)CCCCNC(=O)OCc1ccccc1Cl [Compound 97]	20.4	60	7.9	0.93	–
NCCCC[C@H](NC(=O)OCc1ccccc1Cl)C(=O)NCCNC(=O)CCN(CCC[C@@H](C(=O)NCCc1c[nH]c2ccccc12)N(CCC(=O)NCCNC(=O)[C@H](CCCCN)NC(=O)OCc1ccccc1Cl)CCC(=O)NCCNC(=O)[C@H](CCCCN)NC(=O)OCc1ccccc1Cl)CCC(=O)NCCNC(=O)[C@H](CCCCN)NC(=O)OCc1ccccc1Cl [Compound 96]	12.1	51	12.1	1.87	Live cells (%) ([1]; concentration 33.6 μMol dm^−3): 11.6%
NCCCC[C@H](NC(=O)OCc1ccccc1Cl)C(=O)NCCNC(=O)CCN(CCCC[C@@H](C(=O)NCCc1c[nH]c2ccccc12)N(CCC(=O)NCCNC(=O)[C@H](CCCCN)NC(=O)OCc1ccccc1Cl)CCC(=O)NCCNC(=O)[C@H](CCCCN)NC(=O)OCc1ccccc1Cl)CCC(=O)NCCNC(=O)[C@H](CCCCN)NC(=O)OCc1ccccc1Cl [Compound 100]	5.81	41	3.71	0.93	Live cells (%) ([1]; concentration 25.7 μMol dm^−3): 0%
N[C@@H](CCCCNC(=O)OCc1ccccc1Cl)C(=O)NCCNC(=O)CCN(CCC(=O)NCCNC(=O)[C@@H](N)CCCCNC(=O)OCc1ccccc1Cl)C[C@@H](C(=O)NCCc1c[nH]c2ccccc12)N(CCC(=O)NCCNC(=O)[C@@H](N)CCCCNC(=O)OCc1ccccc1Cl)CCC(=O)NCCNC(=O)[C@@H](N)CCCCNC(=O)OCc1ccccc1Cl [Compound 99]	3.32	52	7.0	0.6	–
N[C@@H](CCCCNC(=O)OCc1ccccc1Cl)C(=O)NCCNC(=O)CCN(CCCC(C(=O)Nc1cccnc1)N(CCC(=O)NCCNC(=O)[C@@H](N)CCCCNC(=O)OCc1ccccc1Cl)CCC(=O)NCCNC(=O)[C@@H](N)CCCCNC(=O)OCc1ccccc1Cl)CCC(=O)NCCNC(=O)[C@@H](N)CCCCNC(=O)OCc1ccccc1Cl (stereo partly shown) [Compound 92]	–	–	–	–	Live cells (%) ([1]; concentration 7.14 μMol dm^−3): 97.7%
NCCC[C@H](NC(=O)OCc1ccccc1Cl)C(=O)NCCNC(=O)CCN(CCCC[C@@H](C(=O)NCCc1c[nH]c2ccccc12)N(CCC(=O)NCCNC(=O)[C@H](CCCN)NC(=O)OCc1ccccc1Cl)CCC(=O)NCCNC(=O)[C@H](CCCN)NC(=O)OCc1ccccc1Cl)CCC(=O)NCCNC(=O)[C@H](CCCN)NC(=O)OCc1ccccc1Cl [Compound 106]	25	71	16.7	3.82	Live cells (%) ([1]; concentration 10.0 μMol dm^−3): 87.7%
NCCCC[C@H](NC(=O)OCc1ccccc1)C(=O)NCCNC(=O)CCN(CCCC[C@@H](C(=O)NCCc1c[nH]c2ccccc12)N(CCC(=O)NCCNC(=O)[C@H](CCCCN)NC(=O)OCc1ccccc1)CCC(=O)NCCNC(=O)[C@H](CCCCN)NC(=O)OCc1ccccc1)CCC(=O)NCCNC(=O)[C@H](CCCCN)NC(=O)OCc1ccccc1 [Compound 102]	–	–	–	–	Live cells (%) ([1]; concentration 13.6 μMol dm^−3): 98.5%; Minimal inhibitory concentration (MIC) (S. aureus ATTC 43300; ATTC 43300, 18 h): 149 μM/L; Minimal inhibitory concentration (MIC) (P. aeruginosa ATTC 27853; ATTC 27853, 18 h): 149 μM/L; Minimal inhibitory concentration (MIC) (E. coli ATTC 25922; ATTC 25922, 18 h): 149 μM/L; Minimal inhibitory concentration (MIC) (S. aureus ATCC 25923; ATCC 25923, 18 h): 17.3 μM/L
N[C@@H](CCCCNC(=O)OCc1ccccc1Cl)C(=O)NCCNC(=O)CCN(CCCC[C@@H](C(=O)NCCc1c[nH]c2ccccc12)N(CCC(=O)NCCNC(=O)[C@@H](N)CCCCNC(=O)OCc1ccccc1Cl)CCC(=O)NCCNC(=O)[C@@H](N)CCCCNC(=O)OCc1ccccc1Cl)CCC(=O)NCCNC(=O)[C@@H](N)CCCCNC(=O)OCc1ccccc1Cl [Compound 101]	10.0	51	12.0	0.93	–
NCCCC[C@H](NC(=O)OCc1ccccc1Cl)C(=O)NCCNC(=O)CCN(CCC(=O)NCCNC(=O)[C@H](CCCCN)NC(=O)OCc1ccccc1Cl)C[C@@H](C(=O)NCCc1c[nH]c2ccccc12)N(CCC(=O)NCCNC(=O)[C@H](CCCCN)NC(=O)OCc1ccccc1Cl)CCC(=O)NCCNC(=O)[C@H](CCCCN)NC(=O)OCc1ccccc1Cl [Compound 98]	8.06	52	12.3	0.95	Live cells (%) ([1]; concentration 4.3 μMol dm^−3): 97.7%
N[C@@H](CCCCNC(=O)OCc1ccccc1Cl)C(=O)NCCNC(=O)CCN(CCC(=O)NCCNC(=O)[C@@H](N)CCCCNC(=O)OCc1ccccc1Cl)CC[C@@H](C(=O)NCCc1c[nH]c2ccccc12)N(CCC(=O)NCCNC(=O)[C@@H](N)CCCCNC(=O)OCc1ccccc1Cl)CCC(=O)NCCNC(=O)[C@@H](N)CCCCNC(=O)OCc1ccccc1Cl [Compound 95]	32	51	32	1.88	–
N[C@@H](CCCCNC(=O)OCc1ccccc1)C(=O)NCCNC(=O)CCN(CCCC[C@@H](C(=O)NCCc1c[nH]c2ccccc12)N(CCC(=O)NCCNC(=O)[C@@H](N)CCCCNC(=O)OCc1ccccc1)CCC(=O)NCCNC(=O)[C@@H](N)CCCCNC(=O)OCc1ccccc1)CCC(=O)NCCNC(=O)[C@@H](N)CCCCNC(=O)OCc1ccccc1 [Compound 103]	74	149	111	12.9	Live cells (%) ([1]; concentration 15.0 μMol dm^−3): 96.5%
N[C@@H](CCCCNC(=O)OCc1ccccc1Cl)C(=O)NCCNC(=O)CCN(CCC[C@@H](C(=O)NCCc1c[nH]cn1)N(CCC(=O)NCCNC(=O)[C@@H](N)CCCCNC(=O)OCc1ccccc1Cl)CCC(=O)NCCNC(=O)[C@@H](N)CCCCNC(=O)OCc1ccccc1Cl)CCC(=O)NCCNC(=O)[C@@H](N)CCCCNC(=O)OCc1ccccc1Cl [Compound 108]	–	–	–	–	Live cells (%) ([1]; concentration 42.1 μMol dm^−3): 94.9%
NCCCC[C@H](NC(=O)OCc1ccccc1Br)C(=O)NCCNC(=O)CCN(CCCC[C@@H](C(=O)NCCc1c[nH]c2ccccc12)N(CCC(=O)NCCNC(=O)[C@H](CCCCN)NC(=O)OCc1ccccc1Br)CCC(=O)NCCNC(=O)[C@H](CCCCN)NC(=O)OCc1ccccc1Br)CCC(=O)NCCNC(=O)[C@H](CCCCN)NC(=O)OCc1ccccc1Br [Compound 104]	30	64	30	3.43	Live cells (%) ([1]; concentration 21.4 μMol dm^−3): 73.6%
NCCCC[C@H](NC(=O)OCc1ccccc1Cl)C(=O)NCCNC(=O)CCN(CCC[C@@H](C(=O)NCCc1c[nH]cn1)N(CCC(=O)NCCNC(=O)[C@H](CCCCN)NC(=O)OCc1ccccc1Cl)CCC(=O)NCCNC(=O)[C@H](CCCCN)NC(=O)OCc1ccccc1Cl)CCC(=O)NCCNC(=O)[C@H](CCCCN)NC(=O)OCc1ccccc1Cl [Compound 107]	–	–	–	–	Live cells (%) ([1]; concentration 47.1 μMol dm^−3): 91.1%
